{
  "source": "patent US5098933A",
  "about": "“Pharmaceutically useful Michael addition products of unsaturated aldehydes and ketones and ascorbic acid” (Theracel Corporation, priority 1990, dated 1992)",
  "key": {"[1]": {"test_system": "T- and B- lymphocyte isolated from mouse spleens", "experiment": "Lymphocyte Blastogenesis Assay", "assay_type": "in vivo", "details": "for RPMI CONTROL: no mitogen (Table 9); for activation at 25 mg/kg / activation at 50 mg/kg / activation at 100 mg/kg / activation at 200 mg/kg: Mus musculus, Lymphocyte", "text": "This assay measures the ability of the compound under test to affect DNA synthesis and mitosis of T- and B- lymphocyte isolated from mouse spleens.\nMitogens are substances which stimulate DNA synthesis and mitosis. The mitogens used in these studies were phytohemaglutinin (PHA) which is isolated from the red kidney bean and concanavalin-A (Con-A) which is isolated form the jack bean. Con-A binds to specific receptors (glycoproteins) containing mannosyl or glycosyl moieties and stimulates all murine T-cells to synthesize DNA, divide, and release lymphokines. Con-A in a soluble form allows distinction between T- and B-cells in the mouse, because although both T- and B-cells can bind 106 molecules of Con-A per cell, only T-cells are stimulated when this lectin is presented in a soluble form. PHA stimulates only subpopulations, T-2 cells, of T-cells in the mouse. Also, Con-A stimulates the production of cytokines such as Interleukin-2 (IL-2). In humans, both T- and B-cells are probably stimulated. The activation of B-cells by PHA may be indirect and mediated by the release of soluble mediators from PHA-activated T-cells.\nThe lymphocyte blastogenesis test is a method to assess the ability of immunocompetent T- or B-cells to respond to a polyclonal mitogen (i.e. PHA or Con-A) or a specific antigen. It may be performed on lymphocytes obtained from mice treated with immunostimulators in vivo or the entire assay can be performed in vitro. The assay as described below uses minimal doses of polyclonal mitogens to induce blastogenesis (proliferation measure by DNA synthesis), in order to be able to assess the phenomena of amplification.\n1. Sacrifice two mice/experimental group by cervical dislocation.\n14. […]\n15. Include in the experiment a control plate which contains the same cells group as above, but receive a 0.1 ml of media instead of mitogen.\n18. After 48 hours all wells receive 0.025 mls of a 0.4 microcurie/ml solution of C-14 methyl thymidine and incubate at 37 C, 5% CO-2 for 18 hours."}, "[2]": {"test_system": "plaque forming cells, antibody specific to sheep red blood cells", "experiment": "Jerne Hemolytic Plaque Assay", "assay_type": "in vivo, mice", "method": "This assay measures the IgM or IgG isotypes of specific antibody produced by antigen used to immunize the mice. […] The direct assay detects IgM and the indirect assay detects IgG-specific antibody.\nWashed spleen cells are added to an agarose (FMC, Rockland, Me.) preparation containing sheep red blood cells (SRBC) and guinea pig complement. A drop of this mixture is transferred to a small petri dish; a cover slip is then placed over the drop to flatten it. The agarose prep is allowed to solidify. Then, the dishes are placed in a small humidified changer inside a CO-2 incubator overnight.\nSmall pinpoint cleared areas (plaques) will be observed under the cover slip. The cleared areas are caused by antibody, specific to the SRBC's being released by stimulated spleen cells and in conjunction with the complement, lyse surrounding SRBC's. These plaque forming cells (PFC's) are counted, and calculations are performed to obtain PFC's per […] spleen cells.\n1. Spleens are harvested from mice according to a standard procedure and adjusted to a final concentration of 20% in […].\n14. Count and record the number of hemolytic plaques per plate. Average plaque counts between the duplicate sets. Multiply the average number of plaques per group by 2.5 to obtain the number of plaque forming cells per million spleen cells."}},
  "note": "Like-named read-outs stand apart in the source and are kept apart here.",
  "data": [
    {"smiles": "CC(=O)CCC1(O)C(=O)OC2C(O)COC21O", "note": "(stereo not drawn) [KBBL, 2-(3-Ketobutyl)-2-Hydroxy-3-Keto-4-Dihydroxyethyl Butyrolactone <3, 6> Cyclohemiketal]", "values": [
      {"measurement": "CON-A 1.5 ug", "setting": "[1]; 25 mg/kg (Table 9)", "result": 3572},
      {"measurement": "CON-A 2.25 ug", "setting": "[1]; 25 mg/kg (Table 9)", "result": 5398},
      {"measurement": "PHA 10.5 ug", "setting": "[1]; 25 mg/kg (Table 9)", "result": 7935},
      {"measurement": "PHA 14 ug", "setting": "[1]; 25 mg/kg (Table 9)", "result": 10994},
      {"measurement": "RPMI CONTROL", "setting": "[1]; 25 mg/kg", "result": 255},
      {"measurement": "CON-A 1.5 ug", "setting": "[1]; 50 mg/kg (Table 9)", "result": 2539},
      {"measurement": "CON-A 2.25 ug", "setting": "[1]; 50 mg/kg (Table 9)", "result": 5802},
      {"measurement": "PHA 10.5 ug", "setting": "[1]; 50 mg/kg (Table 9)", "result": 4579},
      {"measurement": "PHA 14 ug", "setting": "[1]; 50 mg/kg (Table 9)", "result": 7295},
      {"measurement": "RPMI CONTROL", "setting": "[1]; 50 mg/kg", "result": 92},
      {"measurement": "CON-A 1.5 ug", "setting": "[1]; 100 mg/kg (Table 9)", "result": 1051},
      {"measurement": "CON-A 2.25 ug", "setting": "[1]; 100 mg/kg (Table 9)", "result": 3056},
      {"measurement": "PHA 10.5 ug", "setting": "[1]; 100 mg/kg (Table 9)", "result": 3540},
      {"measurement": "PHA 14 ug", "setting": "[1]; 100 mg/kg (Table 9)", "result": 4878},
      {"measurement": "RPMI CONTROL", "setting": "[1]; 100 mg/kg", "result": 33},
      {"measurement": "CON-A 1.5 ug", "setting": "[1]; 200 mg/kg (Table 9)", "result": 2571},
      {"measurement": "CON-A 2.25 ug", "setting": "[1]; 200 mg/kg (Table 9)", "result": 6891},
      {"measurement": "PHA 14 ug", "setting": "[1]; 200 mg/kg (Table 9)", "result": 6963},
      {"measurement": "RPMI CONTROL", "setting": "[1]; 200 mg/kg", "result": 55},
      {"measurement": "activation at 25 mg/kg", "setting": "[1]; 25 mg/kg (Table 9), read-out: % INCR. (CON-A 1.5 ug)", "result": 663, "unit": "%"},
      {"measurement": "activation at 25 mg/kg", "setting": "[1]; 25 mg/kg (Table 9), read-out: % INCR. (CON-A 2.25 ug)", "result": 260, "unit": "%"},
      {"measurement": "activation at 25 mg/kg", "setting": "[1]; 25 mg/kg (Table 9), read-out: % INCR. (PHA 10.5 ug)", "result": 356, "unit": "%"},
      {"measurement": "activation at 25 mg/kg", "setting": "[1]; 25 mg/kg (Table 9), read-out: % INCR. (PHA 14 ug)", "result": 373, "unit": "%"},
      {"measurement": "activation at 50 mg/kg", "setting": "[1]; 50 mg/kg (Table 9), read-out: % INCR. (CON-A 1.5 ug)", "result": 443, "unit": "%"},
      {"measurement": "activation at 50 mg/kg", "setting": "[1]; 50 mg/kg (Table 9), read-out: % INCR. (CON-A 2.25 ug)", "result": 285, "unit": "%"},
      {"measurement": "activation at 50 mg/kg", "setting": "[1]; 50 mg/kg (Table 9), read-out: % INCR. (PHA 10.5 ug)", "result": 163, "unit": "%"},
      {"measurement": "activation at 50 mg/kg", "setting": "[1]; 50 mg/kg (Table 9), read-out: % INCR. (PHA 14 ug)", "result": 214, "unit": "%"},
      {"measurement": "activation at 100 mg/kg", "setting": "[1]; 100 mg/kg (Table 9), read-out: % INCR. (CON-A 1.5 ug)", "result": 54, "unit": "%"},
      {"measurement": "activation at 100 mg/kg", "setting": "[1]; 100 mg/kg (Table 9), read-out: % INCR. (CON-A 2.25 ug)", "result": 103, "unit": "%"},
      {"measurement": "activation at 100 mg/kg", "setting": "[1]; 100 mg/kg (Table 9), read-out: % INCR. (PHA 10.5 ug)", "result": 103, "unit": "%"},
      {"measurement": "activation at 100 mg/kg", "setting": "[1]; 100 mg/kg (Table 9), read-out: % INCR. (PHA 14 ug)", "result": 110, "unit": "%"},
      {"measurement": "activation at 200 mg/kg", "setting": "[1]; 200 mg/kg (Table 9), read-out: % INCR. (CON-A 1.5 ug)", "result": 449, "unit": "%"},
      {"measurement": "activation at 200 mg/kg", "setting": "[1]; 200 mg/kg (Table 9), read-out: % INCR. (CON-A 2.25 ug)", "result": 357, "unit": "%"},
      {"measurement": "activation at 200 mg/kg", "setting": "[1]; 200 mg/kg (Table 9), read-out: % INCR. (PHA 10.5 ug)", "result": 171, "unit": "%"},
      {"measurement": "activation at 200 mg/kg", "setting": "[1]; 200 mg/kg (Table 9), read-out: % INCR. (PHA 14 ug)", "result": 200, "unit": "%"},
      {"measurement": "stimulation at all doses", "setting": "[1]; all doses of PHA and Con-A, 25-200 mg/kg", "result": "stimulatory at all the doses of PHA and Con-A tested"},
      {"measurement": "% INCREASE", "setting": "[2]; 50 mg/kg (Table 11)", "result": 70.2, "unit": "%"},
      {"measurement": "PFC", "setting": "[2]; 50 mg/kg (Table 11)", "result": 36.0, "unit": "PFC/1 MILLION CELLS"},
      {"measurement": "% INCREASE", "setting": "[2]; 100 mg/kg (Table 11)", "result": 104.3, "unit": "%"},
      {"measurement": "PFC", "setting": "[2]; 100 mg/kg (Table 11)", "result": 48.0, "unit": "PFC/1 MILLION CELLS"},
      {"measurement": "% INCREASE", "setting": "[2]; 200 mg/kg (Table 11)", "result": 106.4, "unit": "%"},
      {"measurement": "PFC", "setting": "[2]; 200 mg/kg (Table 11)", "result": 48.5, "unit": "PFC/1 MILLION CELLS"}
    ]}
  ]
}
